Source: patent publication US6359144B1, “Combinatorial libraries of bicyclic guanidine derivatives and compounds therein” (Lion Bioscience AG, priority 1997, dated 2002)
pIC50: −log10 of the molar value. Like-named read-outs stand apart in the source and are kept apart here.

Experiments:
[1] = biological target: T1, σ receptor (Rattus norvegicus, UniProt Q9R0C9); assay: σ receptor radio-receptor binding assay
T1 construct: can be performed with particulate membranes prepared using a modification of the method described in Pasternak et al; tissue Rockland (Gilbertsville, Pa.); host or cells: rat brain minus cerebellum, crude particulate membranes
T1 sequence (Q9R0C9 whole entry): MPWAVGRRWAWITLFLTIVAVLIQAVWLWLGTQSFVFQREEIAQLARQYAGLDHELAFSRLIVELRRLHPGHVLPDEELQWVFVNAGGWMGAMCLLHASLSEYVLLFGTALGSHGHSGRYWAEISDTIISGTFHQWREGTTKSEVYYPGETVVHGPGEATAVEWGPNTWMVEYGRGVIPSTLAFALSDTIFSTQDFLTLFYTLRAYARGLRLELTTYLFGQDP
Excerpt: Additionally, such compounds can be tested in a σ receptor assay. Ligands for the σ receptor can be useful as antipsychotic agents, as described in Abou-Gharbia et al., Annual Reports in Medicinal Chemistry, 28:1-10 (1993).
Radio-receptor assays, such as those whose results are shown in Examples IV, V and VI, below, can be performed with particulate membranes prepared using a modification of the method described in Pasternak et al., Mol. Pharmacol. 11:340-351 (1975), which is incorporated herein by reference. Rat brains frozen in liquid nitrogen can be obtained from Rockland (Gilbertsville, Pa.). The brains are thawed, the cerebella removed and the remaining tissue weighed. Each brain is individually homogenized in 40 ml Tris-HCl buffer (50 mM, pH 7.4, 4° C.) and centrifuged (Sorvall® RC5C SA-600: Du Pont, Wilmington, Del.) (16,000 rpm) for 10 minutes. The pellets are resuspended in fresh Tris-HCl buffer and incubated at 37° C. for 40 minutes. Following incubation, the suspensions are centrifuged as before, the resulting pellets resuspended in 100 volumes of Tris buffer and the suspensions combined. Membrane suspensions are prepared and used in the same day.
Binding assays are carried out in polypropylene tubes, each tube containing 0.5 ml of membrane suspension. 8 nM of ^3H-[D-Ala^2,Me-Phe^4,Gly-ol^5]enkephalin (DAMGO) (specific activity=36 Ci/mmol, 160,000 cpm per tube; which can be obtained from Multiple Peptide Systems, San Diego, Calif., through NIDA drug distribution program 271-90-7302) and 80 μg/ml of bicyclic guanidine, individual or as a mixture and Tris-HCl buffer in a total volume of 0.65 ml. Assay tubes are incubated for 60 mins. at 25° C. The reaction is terminated by filtration through GF-B filters on a Tomtec harvester (Orange, Conn.). The filters are subsequently washed with 6 ml of Tris-HCl buffer, 4° C. Bound radioactivity is counted on a Pharmacia Biotech Betaplate Liquid Scintillation Counter (Piscataway, N.J.) and expressed in cpm. To determine inter- and intra-assay variation, standard curves in which ^3H-DAMGO is incubated in the presence of a range of concentrations of unlabeled DAMGO (0.13-3900 nM) are generally included in each plate of each assay (a 96-well format). Competitive inhibition assays are performed as above using serial dilutions of the bicyclic guanidines, individually or in mixtures.
As opposed to this μ receptor selective assay, which can be carried out using ^3H-DAMGO as radioligand, as described above, assays selective for κ receptors can be carried out using [^3H]-U69,593 (3 nM, specific activity 62 Ci/mmol) as radioligand. Assays selective for δ opiate receptors can be carried out using tritiated DSLET ([D-Ser^2, D-Leu^5]-threonine-enkephalin) as radioligand. Assays selective for the σ opiate receptor can use radiolabeled pentazocine as ligand.

[2] = biological target: T2, κ-opioid receptor (Rattus norvegicus, UniProt P34975); assay: κ-opioid receptor radio-receptor binding assay ([3H]-U69,593); conditions: Table 9
T2 construct: can be performed with particulate membranes prepared using a modification of the method described in Pasternak et al; tissue Rockland (Gilbertsville, Pa.); host or cells: rat brain minus cerebellum, crude particulate membranes
T2 sequence (P34975 whole entry): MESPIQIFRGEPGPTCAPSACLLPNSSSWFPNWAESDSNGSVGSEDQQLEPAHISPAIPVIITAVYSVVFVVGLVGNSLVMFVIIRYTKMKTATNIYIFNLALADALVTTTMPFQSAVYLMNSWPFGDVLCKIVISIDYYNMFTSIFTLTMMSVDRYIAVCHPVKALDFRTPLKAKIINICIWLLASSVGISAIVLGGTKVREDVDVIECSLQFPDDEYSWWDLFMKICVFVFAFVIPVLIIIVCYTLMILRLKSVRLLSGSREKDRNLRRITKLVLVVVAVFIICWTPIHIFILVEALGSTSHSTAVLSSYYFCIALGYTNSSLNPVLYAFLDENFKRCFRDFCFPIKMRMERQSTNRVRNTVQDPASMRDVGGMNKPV

[3] = 17 additional individual compounds, Table 11
[4] = 24 individual compounds, Table 10
[5] = 24 individual compounds, read-out: IC50

Compound	pIC50 [1, 3]	pIC50 [1, 4]	other results
CCCC[C@H]1CN=C2N(CC)[C@@H](Cc3ccccc3)CN21 [Nle/Phe/acetic acid]	6.67	–	–
CCN1C2=NC[C@H](Cc3ccccc3)N2C[C@H]1Cc1ccc(F)cc1 [Phe/pF-phe/acetic acid]	6.62	–	–
COc1ccc(C[C@H]2CN3C(=NC[C@H]3C3CCCCC3)N2CCCC2CCCCC2)cc1 [compound 2]	–	6.23	–
COc1ccc(C[C@H]2CN3C(=NC[C@@H]3C3CCCCC3)N2CCCC2CCCCC2)cc1 [compound 3]	–	7.64	–
CC(C)C[C@@H]1CN2C(=NC[C@@H]2C2CCCCC2)N1CCCC1CCCCC1 [compound 9]	–	7.89	pIC50 [2, 5]: 5.43
CC(C)CC1CN2C(=NCC2C)N1CCC12CC3CC(CC(C3)C1)C2 (stereo not drawn) [compound 19]	–	6.01	pIC50 ([2]; IC50, 24 individual compounds): 5.44
CC(C)CCN1C2=NC[C@H](Cc3ccccc3)N2C[C@@H]1Cc1ccccc1 [Phe/Phe/isovaleric acid]	6.81	–	–
CCN1C2=NC[C@H](Cc3ccccc3)N2C[C@H]1Cc1ccc(Cl)cc1 [Phe/pCl-phe/acetic acid]	6.90	–	–
COc1ccc(C[C@H]2CN3C(=NC[C@@H]3C)N2CCCC2CCCCC2)cc1 [compound 4]	–	7.28	–
COc1ccc(CC2CN3C(=NCC3C)N2CCC23CC4CC(CC(C4)C2)C3)cc1 (stereo not drawn) [compound 16]	–	5.97	pIC50 ([2]; IC50, 24 individual compounds): 6.62
CCN1C2=NCC(Cc3ccccc3)N2CC1Cc1ccc(Cl)cc1 (stereo not drawn) [Phe/pCl-Phe/acetic acid]	7.22	–	–
COc1ccc(CC2CN3C(=NCC3C)N2CCC23CC4CC(CC(C4)C2)C3)cc1 (stereo not drawn) [compound 13]	–	6.63	pIC50 ([2]; IC50, 24 individual compounds): 5.82
CCN1C2=NCC(Cc3ccccc3)N2CC1CC1CCCCC1 (stereo not drawn) [Phe/Cha/acetic acid]	7.28	–	–
C1CCC(CCCN2C3=NC[C@@H](C4CCCCC4)N3C[C@@H]2C2CCCCC2)CC1 [compound 11]	–	6.39	–
CC(C)C[C@@H]1CN2C(=NC[C@@H]2C)N1CCCC1CCCCC1 [compound 7]	–	6.28	pIC50 [2, 5]: 5.26
CCN1C2=NC[C@H](Cc3ccccc3)N2C[C@@H]1Cc1ccc(I)cc1 [Phe/pI-Phe/acetic acid]	7.19	–	–
CCN1C2=NC[C@H](Cc3ccccc3)N2C[C@@H]1Cc1ccc(OC)cc1 [Phe/Tyr(Me)/acetic acid]	7.16	–	–
CC(C)(C)CCN1C2=NC[C@H](Cc3ccccc3)N2C[C@@H]1Cc1ccccc1 [Phe/Phe/(tert-butyl)acetic acid]	6.95	–	–
COc1ccc(CC2CN3C(=NCC3C3CCCCC3)N2CCC23CC4CC(CC(C4)C2)C3)cc1 (stereo not drawn) [compound 15]	–	6.59	pIC50 ([2]; IC50, 24 individual compounds): 5.31
C1CCC(CCCN2C3=NC[C@H](C4CCCCC4)N3C[C@@H]2C2CCCCC2)CC1 [compound 12]	–	6.68	–
CCN1C2=NC[C@H](Cc3ccccc3)N2C[C@@H]1Cc1ccc(F)cc1 [Phe/pF-Phe/acetic acid]	6.67	–	–
CC(C)CC1CN2C(=NCC2C2CCCCC2)N1CCC12CC3CC(CC(C3)C1)C2 (stereo not drawn) [compound 21]	–	6.91	pIC50 ([2]; IC50, 24 individual compounds): 5.92
CCN1C2=NC[C@H](Cc3ccccc3)N2C[C@H]1C1CCCCC1 [Phe/chg/acetic acid]	6.92	–	–
